Common to all, as to format: functional, cell-based
One experiment relates to RPMI-8226. Description: Cytotoxicity against human RPMI8226 cells after 48 hrs by MTT assay. Conditions: RPMI-8226, 48 h.
A further experiment relates to MCF7. Description: Cytotoxicity against human MCF7 cells after 48 hrs by MTT assay. The following applies: MCF7, 48 h.
Another experiment deals with HCT-116. In words: Cytotoxicity against human HCT116 cells after 48 hrs by MTT assay. The following applies: HCT-116, 48 h.
In a further experiment the test system is NCI-H226. In words: Cytotoxicity against human NCI-H226 cells after 48 hrs by MTT assay. The following applies: NCI-H226, 48 h.
The next experiment relates to HL-60. Description: Cytotoxicity against human HL60 cells after 48 hrs by MTT assay. The following applies: HL-60, 48 h.

Take `CC[C@H]1C[C@H]2C[C@@]3(C(=O)OC)c4c(c5cc(OC)ccc5n4CC4=C[C@@]5(CCO)CC(C(=O)OC)=C6Nc7ccccc7[C@@]67CCN(C4)[C@@H]57)CCN([C@@H]2O)[C@@H]13` [BISCARPAMONTAMINE A]: the half-maximal inhibitory concentration (IC50) in the experiment with RPMI-8226 came to 27.9 µM; with MCF7, 25.3 µM; in the experiment with HCT-116 it was 14 µM; with NCI-H226, 16.9 µM; in the experiment with HL-60 it was 12.2 µM.
In the case of `CC[C@]1(O)C[C@@H]2CN(CCc3c([nH]c4ccccc34)[C@@](C(=O)OC)(c3cc4c(cc3OC)N(C)[C@H]3[C@@](O)(C(=O)OC)[C@H](OC(C)=O)[C@]5(CC)C=CCN6CC[C@]43[C@@H]65)C2)C1` [VINBLASTINE], the IC50 with HL-60 stood at 0.0016 µM.
The same measure, in the same setting: as for `CC[C@]1(O)C[C@H]2CN(CCc3c([nH]c4ccccc34)[C@@](C(=O)OC)(c3cc4c(cc3OC)N(C=O)[C@H]3[C@@](O)(C(=O)OC)[C@H](OC(C)=O)[C@]5(CC)C=CCN6CC[C@]43[C@@H]65)C2)C1` [VINCRISTINE], the figure is 0.00087 µM.
